Key:
necrosis = assay: Necrosis inhibitory activity (cell necrosis / cell viability assay); type: cell-based; settings: Necrosis Inhibitory Activity, given as range; read-out: EC50
Description: Necrosis Inhibitory Activity
Representative IC50 of hRIP1 Kinase Assay Correlated with Our IC50 of Cell Necrosis Assay: […]

ferroptosis = assay: Ferroptosis inhibitor activity; type: cell-based; settings: 1 uM threshold activity extrapolated
Description: Ferroptosis Inhibitor Activity 1 Um Threshold Activity Extrapolated

[1] = Liver microsome stability, human; type: in vitro ADME; settings: liver microsomes, liver microsome stability, read-out: Human T1/2
Description: (§1) Representative Metabolic Stability Data I; +, Extrapolated.

[2] = Liver microsome stability, rat; type: in vitro ADME; settings: liver microsomes
Description: as §1

[3] = Liver microsome stability, mouse; type: in vitro ADME; settings: liver microsomes
Description: as §1

[4] = Liver microsome stability, dog; type: in vitro ADME; design: key to Dog T1/2 (min): +, Extrapolated; settings: for half-life: dog, liver microsomes
Description: as §1

[5] = Liver microsome stability, mini-pig; type: in vitro ADME; design: key to mini-pig T1/2 (min): +, Extrapolated; settings: for mini-pig T1/2 (min): extrapolated
Description: as §1

[6] = Liver microsome stability, monkey; type: in vitro ADME; design: key to Monkey T1/2 (min): +, Extrapolated; settings: for half-life: monkey, liver microsomes
Description: as §1

[7] = Hepatocyte stability, human; type: in vitro ADME; design: key to Human T1/2 (min): +, Extrapolated; settings: for Human T1/2 (min): extrapolated; for half-life: human, hepatocytes, read-out: Human T1/2
Description: (§2) Representative Metabolic Stability Data II, +, Extrapolated.

[8] = Hepatocyte stability, rat; type: in vitro ADME; design: key to Rat T1/2 (min): +, Extrapolated; settings: for Rat T1/2 (min): extrapolated; for half-life: rat, hepatocytes, read-out: Rat T1/2
Description: as §2

[9] = Hepatocyte stability, mouse; type: in vitro ADME; design: key to Mouse T1/2 (min): +, Extrapolated; settings: for Mouse T1/2 (min): extrapolated; for half-life: mouse, hepatocytes, read-out: Mouse T1/2
Description: as §2

[10] = Hepatocyte stability, dog; type: in vitro ADME; design: key to Dog T1/2 (min): +, Extrapolated; settings: for Dog T1/2 (min): extrapolated; for half-life: dog, hepatocytes, read-out: Dog T1/2
Description: as §2

[11] = Hepatocyte stability, mini-pig; type: in vitro ADME; design: key to mini-pig T1/2 (min): +, Extrapolated; settings: for mini-pig T1/2 (min): extrapolated
Description: as §2

[12] = Hepatocyte stability, monkey; type: in vitro ADME; design: key to Monkey T1/2 (min): +, Extrapolated; settings: for Monkey T1/2 (min): extrapolated; for half-life: monkey, hepatocytes, read-out: Monkey T1/2
Description: as §2

PK in rat = assay: PK in rat; design: species or system SD rat; settings: Sprague-Dawley, in vivo; for bioavailability / half-life: rat
Description: Representative PK Date of Pro-Drug Compounds

HT-29 = assay: EC50 in HT-29; type: cell-based; settings: Homo sapiens
PK in mouse = settings: in vivo
PK in dog = settings: in vivo
PK in monkey = settings: in vivo
[13] = liver microsome stability, read-out: Rat T1/2
[14] = liver microsome stability, read-out: Mouse T1/2
[15] = liver microsome stability, extrapolated
[16] = po, 10 mg/kg, SD rat, PO 10 mg/kg
[17] = liver microsome stability, read-out: Dog T1/2
[18] = liver microsome stability, read-out: Monkey T1/2
[19] = Hepatocyte Stability, comparison table

CCC(C)(C)C(=O)N(O)Cc1ccc(Cl)cc1 [Compound 15, N-(4-chlorobenzyl)-N-hydroxy-2,2-dimethylbutanamide]
EC50 (necrosis): 0.001 to 1 µM
EC50 (ferroptosis): 1 to 10 µM
half-life [1]: 96.8 min
half-life [2, 13]: 41.1 min
half-life [3, 14]: 16.6 min
Dog T1/2 (min) [4, 15]: +
mini-pig T1/2 (min) [5]: +
Monkey T1/2 (min) [6, 15]: +
Human T1/2 (min) ([7]; Hepatocyte stability): +
Rat T1/2 (min) ([8]; Hepatocyte stability): +
Mouse T1/2 (min) ([9]; Hepatocyte stability): +
Dog T1/2 (min) ([10]; Hepatocyte stability): +
mini-pig T1/2 (min) [11]: +
Monkey T1/2 (min) ([12]; Hepatocyte stability): +
AUC (PK in rat; SD rat, PO 10 mg/kg): 923 ng·h/mL
bioavailability (PK in rat; [16]): 20.3%
half-life (PK in rat; [16]): 293 min

C=CC(C)(C)C(=O)N(O)Cc1ccccc1 [Compound 19, N-benzyl-N-hydroxy-2,2-dimethylbut-3-enamide]
EC50 (necrosis): 0.001 to 1 µM
EC50 (ferroptosis): 1 to 10 µM
half-life [1]: 154 min
half-life [2, 13]: 28.9 min
half-life [3, 14]: 25.4 min
half-life [4, 17]: 6 min
mini-pig T1/2 (min) [5]: +
half-life [6, 18]: 0.3 min
Human T1/2 (min) ([7]; Hepatocyte stability): +
Rat T1/2 (min) ([8]; Hepatocyte stability): +
Mouse T1/2 (min) ([9]; Hepatocyte stability): +
Dog T1/2 (min) ([10]; Hepatocyte stability): +
mini-pig T1/2 (min) [11]: +
Monkey T1/2 (min) ([12]; Hepatocyte stability): +

[2H]CC([2H])C(C)(C)C(=O)N(O)Cc1ccccc1 (centres unmarked) [Compound 27, N-benzyl-N-hydroxy-2,2-dimethylbutanamide-3,4-d2]
EC50 (necrosis): 0.001 to 1 µM
EC50 (ferroptosis): 1 to 10 µM
half-life [1]: 178 min
half-life [2, 13]: 19.8 min
half-life [3, 14]: 26.5 min
half-life [4, 17]: 1.5 min
mini-pig T1/2 (min) [5]: +
half-life [6, 18]: 0.6 min
Human T1/2 (min) ([7]; Hepatocyte stability): +
Rat T1/2 (min) ([8]; Hepatocyte stability): +
Mouse T1/2 (min) ([9]; Hepatocyte stability): +
Dog T1/2 (min) ([10]; Hepatocyte stability): +
mini-pig T1/2 (min) [11]: +
Monkey T1/2 (min) ([12]; Hepatocyte stability): +
AUC (PK in rat; SD rat, PO 10 mg/kg): 78.6 ng·h/mL
bioavailability (PK in rat; [16]): 5.29%
half-life (PK in rat; [16]): 55.2 min

[2H]C([2H])C([2H])([2H])C(C)(C)C(=O)N(O)Cc1ccccc1 [Compound 28, N-benzyl-N-hydroxy-2,2-dimethylbutanamide-3,3,4,4-d4]
EC50 (necrosis): 0.001 to 1 µM
EC50 (ferroptosis): 1 to 10 µM
half-life [1]: 195 min
half-life [2, 13]: 28.6 min
half-life [3, 14]: 33.6 min
half-life [4, 17]: 3.5 min
mini-pig T1/2 (min) [5]: +
half-life [6, 18]: 3.3 min
Human T1/2 (min) ([7]; Hepatocyte stability): +
Rat T1/2 (min) ([8]; Hepatocyte stability): +
Mouse T1/2 (min) ([9]; Hepatocyte stability): +
Dog T1/2 (min) ([10]; Hepatocyte stability): +
mini-pig T1/2 (min) [11]: +
Monkey T1/2 (min) ([12]; Hepatocyte stability): +
AUC (PK in rat; SD rat, PO 10 mg/kg): 318 ng·h/mL
bioavailability (PK in rat; [16]): 14.8%
half-life (PK in rat; [16]): 37 min

CCC(C)(C)C(=O)N(O)Cc1ccccc1 [Compound 92, reference compound]
EC50 (HT-29): 25 nM
half-life [1]: 204 min
half-life ([2]; comparison table with WO2016/101885 compounds, read-out: Rat Liver Microsome T1/2): 25 min
half-life [2, 13]: 25.1 min
half-life ([3]; comparison table with WO2016/101885 compounds, read-out: Mouse Liver Microsome T1/2): 32 min
half-life [3, 14]: 32.5 min
half-life ([4]; comparison table with WO2016/101885 compounds, read-out: Dog Liver Microsome T1/2): 7 min
half-life [4, 17]: 7.1 min
half-life ([5]; minipig, liver microsomes, read-out: mini-pig T1/2): 53.5 min
half-life ([6]; comparison table with WO2016/101885 compounds, read-out: Monkey Liver Microsome T1/2): 3 min
half-life [6, 18]: 2.95 min
half-life [7, 19]: 73 min
half-life ([7]; Hepatocyte stability): 73.1 min
half-life [8, 19]: 14 min
half-life ([8]; Hepatocyte stability): 14.2 min
half-life [9, 19]: 24 min
half-life ([9]; Hepatocyte stability): 24.4 min
half-life [10, 19]: 14 min
half-life ([10]; Hepatocyte stability): 13.9 min
half-life ([11]; minipig, hepatocytes, read-out: mini-pig T1/2): 23.1 min
half-life [12, 19]: 19 min
half-life ([12]; Hepatocyte stability): 18.9 min
AUC(0-inf) (PK in rat; Rat, IV 2 mg/kg): 520 ng·h/mL
clearance (PK in rat; Rat, IV 2 mg/kg): 64 mL/min/kg
Vd (PK in rat; Rat, IV 2 mg/kg, read-out: Vdss): 1.2 L/kg
AUC(0-inf) (PK in rat; Rat, PO 10 mg/kg): 214 ng·h/mL
Cmax (PK in rat; Rat, PO 10 mg/kg): 148 ng/mL
AUC (PK in rat; SD rat, PO 10 mg/kg): 29.9 ng·h/mL
half-life (PK in rat; iv, 2 mg/kg, IV 2 mg/kg): 18 min
bioavailability (PK in rat; po, 10 mg/kg, PO 10 mg/kg): 1.2%
half-life (PK in rat; po, 10 mg/kg, PO 10 mg/kg): 48 min
bioavailability (PK in rat; [16]): 1.15%
half-life (PK in rat; [16]): 38.4 min
AUC(0-inf) (PK in mouse; IV 2 mg/kg): 323 ng·h/mL
clearance (PK in mouse; IV 2 mg/kg): 103 mL/min/kg
half-life (PK in mouse; IV 2 mg/kg): 186 min
Vd (PK in mouse; IV 2 mg/kg, read-out: Vdss): 3.08 L/kg
AUC(0-inf) (PK in mouse; PO 10 mg/kg): 349 ng·h/mL
Cmax (PK in mouse; PO 10 mg/kg): 249 ng/mL
bioavailability (PK in mouse; PO 10 mg/kg): 21.6%
half-life (PK in mouse; PO 10 mg/kg): 96 min
AUC(0-inf) (PK in dog; IV 3 mg/kg): 1960 ng·h/mL
clearance (PK in dog; IV 3 mg/kg): 25.6 mL/min/kg
half-life (PK in dog; IV 3 mg/kg): 72 min
Vd (PK in dog; IV 3 mg/kg, read-out: Vdss): 1.24 L/kg
AUC(0-inf) (PK in dog; PO 10 mg/kg): 136 ng·h/mL
Cmax (PK in dog; PO 10 mg/kg): 171 ng/mL
bioavailability (PK in dog; PO 10 mg/kg): 1.95%
half-life (PK in dog; PO 10 mg/kg): 81 min
AUC(0-inf) (PK in monkey; IV 2 mg/kg): 1940 ng·h/mL
clearance (PK in monkey; IV 2 mg/kg): 17.6 mL/min/kg
half-life (PK in monkey; IV 2 mg/kg): 46.2 min
Vd (PK in monkey; IV 2 mg/kg, read-out: Vdss): 0.86 L/kg
AUC(0-inf) (PK in monkey; PO 10 mg/kg): 374 ng·h/mL
Cmax (PK in monkey; PO 10 mg/kg): 185 ng/mL
bioavailability (PK in monkey; PO 10 mg/kg): 2.6%
half-life (PK in monkey; PO 10 mg/kg): 43.8 min

— US12129221B2, “Difluoro phenyl amide RIP1 inhibitor” (SIRONAX LTD, priority 2018, dated 2024)
